The target of one assay is T1, TSHR (Mus musculus, UniProt P47750).
T1 construct: host or cells: mice (in vivo)
T1 sequence (P47750 22-764): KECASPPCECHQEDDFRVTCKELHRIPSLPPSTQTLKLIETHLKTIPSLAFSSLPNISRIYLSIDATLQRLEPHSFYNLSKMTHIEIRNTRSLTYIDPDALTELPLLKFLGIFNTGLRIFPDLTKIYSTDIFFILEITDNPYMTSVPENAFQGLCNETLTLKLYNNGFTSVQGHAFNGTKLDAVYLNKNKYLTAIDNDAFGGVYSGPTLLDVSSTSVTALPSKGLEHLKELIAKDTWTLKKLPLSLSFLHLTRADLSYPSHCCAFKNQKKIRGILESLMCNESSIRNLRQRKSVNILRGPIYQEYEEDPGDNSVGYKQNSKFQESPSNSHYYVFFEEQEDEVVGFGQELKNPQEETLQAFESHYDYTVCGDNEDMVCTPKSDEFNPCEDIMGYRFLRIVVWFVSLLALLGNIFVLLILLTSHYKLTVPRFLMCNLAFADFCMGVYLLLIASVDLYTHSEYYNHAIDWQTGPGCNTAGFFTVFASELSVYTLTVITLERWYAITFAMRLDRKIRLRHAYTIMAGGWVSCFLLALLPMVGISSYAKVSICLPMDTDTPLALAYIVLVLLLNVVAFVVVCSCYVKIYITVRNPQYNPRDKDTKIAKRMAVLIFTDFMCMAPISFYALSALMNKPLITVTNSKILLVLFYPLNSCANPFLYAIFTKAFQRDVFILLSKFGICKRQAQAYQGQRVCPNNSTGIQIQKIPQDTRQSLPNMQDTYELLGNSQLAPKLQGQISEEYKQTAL
Experiment: not given
To be noted: mice in which TRH has been administered and mice in which thyroid stimulating antibodies M22 has been administered; cited from earlier work.
T2 sequence (P16473 21-764): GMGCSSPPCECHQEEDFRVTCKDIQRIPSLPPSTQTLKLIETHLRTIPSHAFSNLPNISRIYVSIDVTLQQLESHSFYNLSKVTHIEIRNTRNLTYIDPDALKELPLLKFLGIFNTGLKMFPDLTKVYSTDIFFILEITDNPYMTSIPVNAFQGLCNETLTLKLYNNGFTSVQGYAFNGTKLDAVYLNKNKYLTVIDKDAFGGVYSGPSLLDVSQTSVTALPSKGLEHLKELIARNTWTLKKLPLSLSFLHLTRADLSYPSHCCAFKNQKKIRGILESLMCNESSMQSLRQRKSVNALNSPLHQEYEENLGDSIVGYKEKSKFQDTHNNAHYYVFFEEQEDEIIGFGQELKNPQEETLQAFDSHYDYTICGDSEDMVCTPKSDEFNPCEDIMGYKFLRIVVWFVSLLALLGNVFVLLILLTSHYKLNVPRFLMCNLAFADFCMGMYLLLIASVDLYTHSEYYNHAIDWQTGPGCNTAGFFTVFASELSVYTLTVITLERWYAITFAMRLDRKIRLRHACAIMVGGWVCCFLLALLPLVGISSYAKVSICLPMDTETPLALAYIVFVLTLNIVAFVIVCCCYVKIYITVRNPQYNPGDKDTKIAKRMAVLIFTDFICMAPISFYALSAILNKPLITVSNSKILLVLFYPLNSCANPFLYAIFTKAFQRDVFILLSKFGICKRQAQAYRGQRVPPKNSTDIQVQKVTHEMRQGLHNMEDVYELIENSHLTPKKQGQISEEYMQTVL
As to `COc1ccc(C2Nc3ccccc3C(=O)N2Cc2ccco2)cc1COc1c(C)cc(NC(C)=O)cc1C` (stereo not shown) [NCGC00242364], the “blood T4 concentration” value is listed as “blood T4 concentration lowering effect”.

A further assay addresses T2, human TSHR (Homo sapiens, UniProt P16473).
T2 construct: expressed in transfected cells
Kind of assay: Antagonist activity using TSH-induced cAMP production in human TSHR-stably expressing CHO cells. Type of assay: cell-based. To be noted: human TSH 50 ng/mL. How it is done:
Measurement of Antagonist Activity Using TSH-Induced cAMP Production in Human TSHR-Stably Expressing CHO Cells as an Indicator
The human TSHR gene sequence (reference number NM_000369.2) was inserted into the multicloning site of pcDNA3.1(+). The constructed plasmid vector was introduced into CHO cells using the lipofection method to establish human TSHR-stably expressing CHO cells. The obtained cells were seeded at 5×10^4 cells/well in a 96-well poly-D-lysine-coated plate, and cultured in an F12 culture medium containing 10% FBS, 400 μg/mL of G418, 50 U/mL of penicillin and 50 μg/mL of streptomycin under conditions of 37° C. and 5% CO2 for 1 day. After the culture medium was removed, the cells were washed twice with 100 μL of an assay buffer solution (Hanks' Balanced Salt Solution containing 20 mM HEPES and 1 mM IBMX) per well. 30 μL of a test compound-containing assay buffer solution was added to the well and incubated at room temperature for 15 minutes. Then, 30 μL of an assay buffer solution containing human TSH (final concentration 50 ng/mL, R&D Systems, Inc.) was added, and incubated at 37° C. for 1 hour. The supernatant was removed, a Lysis and Detection Buffer 2 (Cisbio) was added, and the mixture was incubated at room temperature for 1 hour to prepare a cell lysate. According to the instruction manual of a cAMP Gs HiRange kit (Cisbio), the cell lysate, d2-labeled cAMP and anti-cAMP Europium Cryptate labeled antibodies (Cisbio) were reacted in a 384-well white microplate. Then, a fluorescence intensity ratio (measurement wavelength 665 nm/620 nm) was measured using a multi-plate reader (PHERAstar FSX, BMG LABTECH, Japan). The fluorescence intensity ratio of each sample was converted to a cAMP content using a standard curve. The cAMP content was converted as a percentage of the control value to calculate the cAMP production rate. The CAMP production rate was plotted against the test compound concentration using Prism (Graph Pad Software Inc.) to calculate the IC50 value. The IC50 of each test compound is shown in the above tables. In the tables, IC50<0.5 μM: A, 0.5 μM≤IC50<3.0 μM: B, 3.0 μM≤IC50<30 μM: C are shown.
With `CN1C(=O)[C@H](NC(N)=O)Cc2ccc(C(F)(F)F)c(Oc3cc(F)ccc3Cl)c21` [Example 74, ((3R)-8-(2-chloro-5-fluorophenoxy)-1-methyl-2-oxo-7-(trifluoromethyl)-1,2,3,4-tetrahydroquinolin-3-yl)urea], the half-inhibitory concentration (IC50) was < 500 nM.
`CN1C(=O)[C@H](NC(N)=O)Cc2ccc(C(C)(F)F)c(Oc3cc(F)ccc3Cl)c21` [Example 75, ((3R)-8-(2-chloro-5-fluorophenoxy)-7-(1,1-difluoroethyl)-1-methyl-2-oxo-1,2,3,4-tetrahydroquinolin-3-yl)urea]: the half-maximal inhibitory concentration (IC50) is < 500 nM.
As to `CCc1ccc2c(c1Oc1cc(F)ccc1Cl)N(C)C(=O)[C@H](NC(N)=O)C2` [Example 76, ((3R)-8-(2-chloro-5-fluorophenoxy)-7-ethyl-1-methyl-2-oxo-1,2,3,4-tetrahydroquinolin-3-yl)urea], the half-maximal inhibitory concentration (IC50) is < 500 nM.
Take `CC(c1ccccc1Cl)c1cccc2c1N(C)C(=O)[C@H](NC(N)=O)C2` (stereo partly drawn) [Example 77, ((3R)-8-(1-(2-chlorophenyl)ethyl)-1-methyl-2-oxo-1,2,3,4-tetrahydroquinolin-3-yl)urea]: the concentration for half-maximal inhibition (IC50) was < 500 nM.
Consider `CC(c1ccccc1C(F)(F)F)c1cccc2c1N(C)C(=O)[C@H](NC(N)=O)C2` (stereo partly drawn) [Example 78, ((3R)-1-Methyl-2-oxo-8-(1-(2-(trifluoromethyl)phenyl)ethyl)-1,2,3,4-tetrahydroquinolin-3-yl)urea], for which the half-maximal inhibitory concentration (IC50) is < 500 nM.
The same measure, in the same setting: as for `CC(c1cc(F)ccc1Cl)c1cccc2c1N(C)C(=O)[C@H](NC(N)=O)C2` (stereo partly shown) [Example 79], the figure is < 500 nM.
Still for that read-out and setting: in the case of `CNC(=O)N[C@@H]1Cc2ccc(C)c(Oc3cc(F)ccc3Cl)c2N(C)C1=O` [Example 80, 1-((3R)-8-(2-chloro-5-fluorophenoxy)-1,7-dimethyl-2-oxo-1,2,3,4-tetrahydroquinolin-3-yl)-3-methylurea] it was < 500 nM; in that of `CC(=O)N[C@@H]1Cc2ccc(C)c(Oc3cc(F)ccc3Cl)c2N(C)C1=O` [Example 81, N-((3R)-8-(2-chloro-5-fluorophenoxy)-1,7-dimethyl-2-oxo-1,2,3,4-tetrahydroquinolin-3-yl)acetamide], < 500 nM.
The same measure, in the same setting: in the case of `Cc1ccc2c(c1Oc1cc(F)ccc1Cl)N(C)C(=O)[C@H](NC(=O)C1CC1)C2` [Example 82] it was < 500 nM; in that of `Cc1ccc2c(c1Oc1cc(F)ccc1Cl)N(C)C(=O)[C@H](NC(=O)C(Cl)Cl)C2` [Example 83], < 500 nM.
As for `CN1C(=O)[C@H](NC(=O)C2CC2)Cc2cccc(Oc3cc(F)ccc3Cl)c21` [Example 84], the half-maximal inhibitory concentration (IC50) is < 500 nM.
Same read-out and setting: in the case of `Cc1ccc2c(c1Oc1cc(F)ccc1Cl)N(C)C(=O)[C@H](NC(=O)CC(F)(F)F)C2` [Example 85, N-((3R)-8-(2-chloro-5-fluorophenoxy)-1,7-dimethyl-2-oxo-1,2,3,4-tetrahydroquinolin-3-yl)-3,3,3-trifluoropropanamide] it was < 500 nM.

Values taken from patent US20250361210A1, “3,4-DIHYDROQUINOLIN-2(1H)-ONE COMPOUND” (Kissei Pharmaceutical Co., Ltd., priority 2022, published 2025).
